Tests used:
Leishmania infantum [1] = test: Antileishmanial activity against Leishmania infantum MCAN/ES/89/IPZ229/1/89 promastigotes assessed as reduction in parasite growth incubated for 24 hrs by flow cytometry analysis; format: functional, organism-based; conditions: MCAN/ES/89/IPZ229/1/89, 24 h
Leishmania infantum [2] = test: Antileishmanial activity against Leishmania infantum MCAN/ES/89/IPZ229/1/89 amastigotes assessed as reduction in parasite growth incubated for 24 hrs by flow cytometry analysis; format: functional, organism-based; conditions: MCAN/ES/89/IPZ229/1/89, 24 h
[3] = Selectivity ratio of IC50 for cytotoxicity against human THP-1 cells to IC50 for Antileishmanial activity against Leishmania infantum MCAN/ES/89/IPZ229/1/89 amastigotes; format: toxicity, cell-based; conditions: read-out: Ratio IC50
Trypanosoma cruzi [4] = test: Trypanocidal activity against Trypanosoma cruzi Y strain amastigotes measured after 48 hrs; format: functional, organism-based
[5] = Selectivity ratio of IC50 for cytotoxicity against mouse J774.1 cells to IC50 for Trypanocidal activity against Trypanosoma cruzi Tulahuen 2 strain; format: toxicity, cell-based; conditions: read-out: Ratio IC50
Trypanosoma cruzi [6] = test: Trypanocidal activity against Trypanosoma cruzi Y strain; format: functional, organism-based
Trypanosoma cruzi [7] = test: Trypanocidal activity against Trypanosoma cruzi Y strain measured after 24 hrs; format: functional, organism-based
Trypanosoma cruzi [8] = test: Potency index, ratio of test compound IC50 to Benznidazole IC50 for Trypanocidal activity against Trypanosoma cruzi Y strain measured after 24 hrs; format: functional
Trypanosoma cruzi [9] = test: Trypanocidal activity against Trypanosoma cruzi Y strain epimastigotes measured after 72 hrs; format: functional, organism-based
[10] = Selectivity ratio of IC50 for cytotoxicity against human MRC5 cells to IC50 for Trypanocidal activity against Trypanosoma cruzi Tulahuen CL2 strain; format: toxicity, cell-based; conditions: read-out: Ratio IC50

C[Se]/C(=N/C(=O)c1cccnc1)NC(=O)c1cccnc1
IC50 (Leishmania infantum [1]): 3.74 µM | IC50 (Leishmania infantum [2]): 3.03 µM | selectivity ratio [3]: 4

CCNC(=O)SCCOc1ccc(Oc2ccccc2)cc1
IC50 (Trypanosoma cruzi [4]): 7.88 µM

O=C(CS/C(C(=O)c1ccc2ccccc2c1)=C1\C=C(c2ccc(O)cc2)SS1)c1ccc2ccccc2c1
selectivity ratio at 48 h [5]: 12.8

Cc1cccc([Se]C2CC3=C(OC2(C)C)c2ccccc2C(=O)C3=O)c1 (stereo not given)
IC50 (Trypanosoma cruzi [6]): 1680 µM

COc1cccc([Se]C2CC3=C(OC2(C)C)c2ccccc2C(=O)C3=O)c1 (stereo not given)
IC50 (Trypanosoma cruzi [6]): 208 µM

COc1ccccc1/C=C/C=N/NC(N)=S
IC50 (Trypanosoma cruzi [7]): 0.4 µM

CC1(C)OC2=C(CC1[Se]c1cccc(Cl)c1)C(=O)C(=O)c1ccccc12 (stereo not given)
IC50 (Trypanosoma cruzi [6]): 360 µM

CC1(C)OC2=C(CC1[Se]c1cccc(Br)c1)C(=O)C(=O)c1ccccc12 (stereo not given)
IC50 (Trypanosoma cruzi [6]): 477 µM

CC1(C)OC2=C(CC1[Se]c1ccc(C(F)(F)F)cc1)C(=O)C(=O)c1ccccc12 (stereo not given)
IC50 (Trypanosoma cruzi [6]): 54.9 µM | Ratio IC50 (Trypanosoma cruzi [8]): 2

CC(C)=CCC/C(C)=C/COc1ccc(CCN(C)C(=O)/C=C/S(C)(=O)=O)cc1
IC50 (Trypanosoma cruzi [9]): 1.23 µM

CCOc1cccc2sc(N(Cc3cccnc3)C(=O)C3CCCCC3)nc12
selectivity ratio [10]: > 200

O=C(Cn1ccnc1[N+](=O)[O-])NCc1ccccc1 [BENZNIDAZOLE]
IC50 (Trypanosoma cruzi [6]): 104 µM
